Laboratory results from US12552846B2, “Modified BCL9 mimetic peptides” (Sapience Therapeutics, Inc., priority 2019, dated 2026).

System: MCF-7 breast cancer cells
Assay: MTT cell viability / anti-proliferative assay in MCF-7 cells
Type: cell-based
Conditions: MCF7 cells, compared to peptide ST-BC1
Method: MCF-7 breast cancer cells set at a density of 2.5×10^4 cells/well in 150 μL of MEM medium+10% fetal bovine serum (FBS) in a 96 well dish. Lyophilized BCL9 peptides were reconstituted at a concentration of 10 mg/mL in 270 mM trehalose buffer and added to each well at a volume of 50 μL to a final concentration range of 2.5-40 μM. Cells were incubated with BCL9 peptides for 96 hours at 37° C.
Cell viability was quantified by spectrophotometry using Roche MTT cell proliferation assay kit according to manufacturer's instructions. Briefly, cells were washed with PBS, and incubated in fresh MEM medium with 10% FBS, 1% penicillin/streptomycin, and 1% non-essential amino acids, plus 10 μL MTT reagent at 37° C. for 4 hours. After 4 hours, 100 μL of solubilization solution was added, and cells were incubated overnight at 37° C. and 5% carbon dioxide. Absorbance was measured at OD570 nm with a reference of OD650 nm. The degree of absorption is proportional to the number of living cells. Percentage of absorbance relative to untreated controls was quantified and presented as % Cell Viability.
In functional assays, EC50 is the concentration that reduces a biological response by 50% of its maximum. In the case of BLC9 peptides, EC50 is measured as the concentration that reduces cell viability by 50% of its maximum. EC50 can be calculated by any number of means known in the art.

## YGRKKRRQRRRLSQEQLEHRERSLQTLRDIQRMLF [BCL-21, TAT cell-penetrating region plus native BCL9 HD2 domain]
  anti-proliferative activity: inefficient at inhibiting cell proliferation
